Laboratory results taken from the NIST ThermoML archive (doi:10.1016/j.jct.2012.11.011).
Numbers after ± are expanded uncertainties.

Experiment: xn = mol fraction of the nth substance listed
Settings: Liquid, Vibrating tube method

CCOC(=O)OCC [diethyl carbonate] + CCCCCCCC
mass density [kg/m3]
Settings | x1 = 0.0522 | x1 = 0.1042 | x1 = 0.1671 | x1 = 0.322 | x1 = 0.3657 | x1 = 0.5075 | x1 = 0.6922 | x1 = 0.8002 | x1 = 0.9206 | x1 = 0.9459
288.15 K, 100 kPa | 716 ± 0.3 | 726.1 ± 0.3 | 738.6 ± 0.3 | 772.6 ± 0.3 | 784 ± 0.3 | 820.5 ± 0.3 | 874.2 ± 0.3 | 908.5 ± 0.3 | 951 ± 0.3 | 959.8 ± 0.3
288.15 K, 5000 kPa | 720.1 ± 0.3 | 730.4 ± 0.3 | 742.8 ± 0.3 | 778.1 ± 0.3 | 788.4 ± 0.3 | 824.9 ± 0.3 | 879.4 ± 0.3 | 912.8 ± 0.3 | 954.9 ± 0.3 | 964.3 ± 0.3
288.15 K, 10000 kPa | 723.9 ± 0.4 | 734.4 ± 0.4 | 746.8 ± 0.4 | 782.1 ± 0.3 | 792.6 ± 0.3 | 829 ± 0.3 | 883.7 ± 0.3 | 917 ± 0.3 | 958.8 ± 0.3 | 968.6 ± 0.3
288.15 K, 20000 kPa | 731.2 ± 0.5 | 741.6 ± 0.5 | 754.1 ± 0.4 | 789.6 ± 0.4 | 800.1 ± 0.4 | 836.8 ± 0.4 | 891.6 ± 0.3 | 925 ± 0.3 | 966.5 ± 0.3 | 976.3 ± 0.3
288.15 K, 30000 kPa | 737.8 ± 0.5 | 748.2 ± 0.5 | 760.7 ± 0.5 | 796.5 ± 0.5 | 807.1 ± 0.4 | 843.9 ± 0.4 | 898.5 ± 0.3 | 932.1 ± 0.3 | 973.8 ± 0.3 | 983.3 ± 0.3
288.15 K, 40000 kPa | 744 ± 0.6 | 754.5 ± 0.6 | 767.2 ± 0.6 | 803.1 ± 0.5 | 813.7 ± 0.5 | 850.5 ± 0.4 | 907.6 ± 0.3 | 939 ± 0.3 | 980.7 ± 0.3 | 990.3 ± 0.3
298.15 K, 100 kPa | 707.7 ± 0.3 | 717.7 ± 0.3 | 729.9 ± 0.3 | 764.5 ± 0.3 | 774.7 ± 0.3 | 810.7 ± 0.3 | 864.7 ± 0.3 | 897.7 ± 0.3 | 939.2 ± 0.3 | 949.3 ± 0.3
298.15 K, 5000 kPa | 712.5 ± 0.4 | 722.5 ± 0.3 | 734.7 ± 0.3 | 769.5 ± 0.3 | 779.7 ± 0.3 | 815.8 ± 0.3 | 869.8 ± 0.3 | 902.8 ± 0.3 | 944.2 ± 0.3 | 953.8 ± 0.3
298.15 K, 10000 kPa | 716.3 ± 0.4 | 726.3 ± 0.4 | 738.5 ± 0.4 | 773.4 ± 0.3 | 783.7 ± 0.3 | 819.8 ± 0.3 | 873.8 ± 0.3 | 906.9 ± 0.3 | 948.2 ± 0.3 | 957.7 ± 0.3
298.15 K, 20000 kPa | 723.9 ± 0.5 | 734 ± 0.5 | 746.3 ± 0.4 | 781.4 ± 0.4 | 791.8 ± 0.4 | 828.1 ± 0.4 | 882 ± 0.3 | 915.2 ± 0.3 | 956.4 ± 0.3 | 965.9 ± 0.3
298.15 K, 30000 kPa | 730.8 ± 0.6 | 741 ± 0.5 | 753.4 ± 0.5 | 788.8 ± 0.5 | 799.1 ± 0.5 | 835.6 ± 0.4 | 889.8 ± 0.3 | 922.8 ± 0.3 | 964 ± 0.3 | 973.6 ± 0.3
298.15 K, 40000 kPa | 737.2 ± 0.6 | 747.4 ± 0.6 | 759.9 ± 0.6 | 795.5 ± 0.5 | 805.9 ± 0.5 | 842.4 ± 0.4 | 896.9 ± 0.4 | 929.9 ± 0.3 | 971.1 ± 0.3 | 980.7 ± 0.3
308.15 K, 100 kPa | 699.6 ± 0.3 | 709.3 ± 0.3 | 721.2 ± 0.3 | 755.4 ± 0.3 | 765.4 ± 0.3 | 801 ± 0.3 | 854.3 ± 0.3 | 887.1 ± 0.3 | 928 ± 0.3 | 937.6 ± 0.3
308.15 K, 5000 kPa | 704.2 ± 0.4 | 714 ± 0.3 | 725.9 ± 0.3 | 760.4 ± 0.3 | 770.4 ± 0.3 | 805.9 ± 0.3 | 859.3 ± 0.3 | 892 ± 0.3 | 932.9 ± 0.3 | 942.6 ± 0.3
308.15 K, 10000 kPa | 708.7 ± 0.4 | 718.5 ± 0.4 | 730.5 ± 0.4 | 765.1 ± 0.4 | 775.1 ± 0.3 | 810.8 ± 0.3 | 864.1 ± 0.3 | 896.8 ± 0.3 | 937.6 ± 0.3 | 947.3 ± 0.3
308.15 K, 20000 kPa | 716.6 ± 0.5 | 726.5 ± 0.5 | 738.7 ± 0.4 | 773.3 ± 0.4 | 783.6 ± 0.4 | 819.4 ± 0.4 | 873 ± 0.3 | 905.6 ± 0.3 | 946.3 ± 0.3 | 956 ± 0.3
308.15 K, 30000 kPa | 723.8 ± 0.6 | 733.9 ± 0.5 | 746.2 ± 0.5 | 781.1 ± 0.5 | 791.2 ± 0.5 | 827.2 ± 0.4 | 880.9 ± 0.3 | 913.7 ± 0.3 | 954.3 ± 0.3 | 964.1 ± 0.3
308.15 K, 40000 kPa | 730.5 ± 0.7 | 740.7 ± 0.6 | 753 ± 0.6 | 788 ± 0.5 | 798.3 ± 0.5 | 834.6 ± 0.4 | 888.3 ± 0.4 | 921.2 ± 0.3 | 961.9 ± 0.3 | 971.5 ± 0.3

CCOC(=O)OCC [diethyl carbonate] + CCCCCCCCCC
mass density [kg/m3]
Settings | x1 = 0.0538 | x1 = 0.1716 | x1 = 0.2151 | x1 = 0.3257 | x1 = 0.5032 | x1 = 0.5482 | x1 = 0.7985 | x1 = 0.8989 | x1 = 0.9487
288.15 K, 100 kPa | 740.8 ± 0.3 | 759.4 ± 0.3 | 766.3 ± 0.3 | 786.5 ± 0.3 | 821.3 ± 0.3 | 832.2 ± 0.3 | 903.2 ± 0.3 | 937.5 ± 0.3 | 956.9 ± 0.3
288.15 K, 5000 kPa | 744.5 ± 0.3 | 763.3 ± 0.3 | 770.2 ± 0.3 | 790.5 ± 0.3 | 826.7 ± 0.3 | 836.6 ± 0.3 | 907.4 ± 0.3 | 943.6 ± 0.3 | 963 ± 0.3
288.15 K, 10000 kPa | 748 ± 0.4 | 766.8 ± 0.4 | 773.7 ± 0.4 | 794.3 ± 0.3 | 830.7 ± 0.3 | 840.6 ± 0.3 | 911.5 ± 0.3 | 947.7 ± 0.3 | 967.1 ± 0.3
288.15 K, 20000 kPa | 754.6 ± 0.4 | 773.6 ± 0.4 | 780.5 ± 0.4 | 801.2 ± 0.4 | 837.8 ± 0.4 | 847.8 ± 0.3 | 919 ± 0.3 | 955.4 ± 0.3 | 974.8 ± 0.3
288.15 K, 30000 kPa | 760.6 ± 0.5 | 780.9 ± 0.5 | 786.9 ± 0.5 | 807.5 ± 0.4 | 844.6 ± 0.4 | 854.5 ± 0.4 | 926 ± 0.3 | 962.6 ± 0.3 | 981.9 ± 0.3
288.15 K, 40000 kPa | 766.4 ± 0.6 | 785.6 ± 0.6 | 792.8 ± 0.5 | 813.8 ± 0.5 | 850.9 ± 0.4 | 860.9 ± 0.4 | 932.8 ± 0.3 | 969.5 ± 0.3 | 988.9 ± 0.3
298.15 K, 100 kPa | 733.1 ± 0.3 | 751.2 ± 0.3 | 758 ± 0.3 | 777.9 ± 0.3 | 813.5 ± 0.3 | 823.1 ± 0.3 | 892.8 ± 0.3 | 928.3 ± 0.3 | 947.6 ± 0.3
298.15 K, 5000 kPa | 737.6 ± 0.3 | 755.8 ± 0.3 | 762.6 ± 0.3 | 782.6 ± 0.3 | 818.2 ± 0.3 | 827.8 ± 0.3 | 897.7 ± 0.3 | 933.5 ± 0.3 | 952.7 ± 0.3
298.15 K, 10000 kPa | 740.7 ± 0.4 | 759.1 ± 0.4 | 766 ± 0.4 | 786.1 ± 0.3 | 821.9 ± 0.3 | 831.7 ± 0.3 | 901.5 ± 0.3 | 937.5 ± 0.3 | 956.6 ± 0.3
298.15 K, 20000 kPa | 747.7 ± 0.4 | 766.2 ± 0.4 | 773.1 ± 0.4 | 793.5 ± 0.4 | 829.7 ± 0.4 | 839.4 ± 0.3 | 909.6 ± 0.3 | 945.7 ± 0.3 | 964.8 ± 0.3
298.15 K, 30000 kPa | 753.9 ± 0.5 | 772.6 ± 0.5 | 779.8 ± 0.5 | 800.2 ± 0.5 | 836.7 ± 0.4 | 846.5 ± 0.4 | 917.1 ± 0.3 | 953.2 ± 0.3 | 972.2 ± 0.3
298.15 K, 40000 kPa | 759.8 ± 0.6 | 778.7 ± 0.6 | 785.8 ± 0.6 | 806.5 ± 0.5 | 843.3 ± 0.4 | 853.1 ± 0.4 | 924.1 ± 0.3 | 960.2 ± 0.3 | 979.3 ± 0.3
308.15 K, 100 kPa | 725.5 ± 0.3 | 743.2 ± 0.3 | 749.9 ± 0.3 | 769.4 ± 0.3 | 804.4 ± 0.3 | 813.9 ± 0.3 | 882.5 ± 0.3 | 917.7 ± 0.3 | 936.6 ± 0.3
308.15 K, 5000 kPa | 729.6 ± 0.3 | 747.5 ± 0.3 | 754.3 ± 0.3 | 773.9 ± 0.3 | 809 ± 0.3 | 818.4 ± 0.3 | 887.3 ± 0.3 | 922.6 ± 0.3 | 941.5 ± 0.3
308.15 K, 10000 kPa | 733.6 ± 0.4 | 751.6 ± 0.4 | 758.4 ± 0.4 | 778.1 ± 0.3 | 813.5 ± 0.3 | 823 ± 0.3 | 892 ± 0.3 | 927.1 ± 0.3 | 946.2 ± 0.3
308.15 K, 20000 kPa | 740.7 ± 0.5 | 758.9 ± 0.4 | 765.9 ± 0.4 | 785.9 ± 0.4 | 821.4 ± 0.4 | 831 ± 0.4 | 900.5 ± 0.3 | 935.7 ± 0.3 | 954.6 ± 0.3
308.15 K, 30000 kPa | 747.5 ± 0.5 | 765.8 ± 0.5 | 772.7 ± 0.5 | 792.9 ± 0.5 | 828.9 ± 0.4 | 838.4 ± 0.4 | 908.2 ± 0.3 | 943.8 ± 0.3 | 962.7 ± 0.3
308.15 K, 40000 kPa | 753.6 ± 0.6 | 772.1 ± 0.6 | 779.1 ± 0.6 | 799.4 ± 0.5 | 835.8 ± 0.4 | 845.3 ± 0.4 | 915.6 ± 0.3 | 951.2 ± 0.3 | 970.2 ± 0.3
